Measured values reported in ChEMBL document CHEMBL1201862, “PubChem BioAssay data set” (2004).
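1) Cells in 96-well plates. 2) Compound, 48 h, 5 concentrations. 3) Linear interpolation between surrounding doses. 4) Unreached endpoint = highest concentration. At the GI50, growth is halved.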 Activity calls are given as the source filed them. No stated cut-off is given here; in the data, active = GI50 up to about 1.1 µM and inactive = higher.

Experiments:
Assay in all cases: NCI anticancer screen, dose series, 48 h
NCI-H460 = tested on: NCI-H460
HOP-92 = tested on: HOP-92
SNB-19 = tested on: SNB-19
KM12 = tested on: KM12
SN12C = tested on: SN12C
HCT-116 = tested on: HCT-116
A549 = tested on: A549
MDA-N = tested on: MDA-N
MCF7 = tested on: MCF7
COLO 205 = tested on: COLO 205
Malme-3M = tested on: Malme-3M
CAKI-1 = tested on: CAKI-1
HOP-62 = tested on: HOP-62
HCC 2998 = tested on: HCC 2998
M14 = tested on: M14
NCI-H23 = tested on: NCI-H23
HT-29 = tested on: HT-29
SF-268 = tested on: SF-268
SNB-75 = tested on: SNB-75
OVCAR-8 = tested on: OVCAR-8

SMILES | GI50 (NCI-H460) | GI50 (HOP-92) | GI50 (SNB-19) | GI50 (KM12) | GI50 (SN12C) | GI50 (HCT-116) | GI50 (A549) | GI50 (MDA-N) | GI50 (MCF7) | GI50 (COLO 205) | GI50 (Malme-3M) | GI50 (CAKI-1) | GI50 (HOP-62) | GI50 (HCC 2998) | GI50 (M14) | GI50 (NCI-H23) | GI50 (HT-29) | GI50 (SF-268) | GI50 (SNB-75) | GI50 (OVCAR-8)
O=C(CSc1nc2ccccc2c(=O)n1-c1ccccc1)N/N=C1\C(=O)Nc2ccc(F)cc21 | 2.19 µM (inactive) | 1.84 µM (inactive) | 4.08 µM (inactive) | 3.71 µM (inactive) | 1.97 µM (inactive) | 2.02 µM (inactive) | 4 µM (inactive) | 3.47 µM (inactive) | 2.18 µM (inactive) | 2.64 µM (inactive) | 2.01 µM (inactive) | 1.73 µM (inactive) | 2.09 µM (inactive) | 2.21 µM (inactive) | 1.9 µM (inactive) | 3.01 µM (inactive) | 3.06 µM (inactive) | 2.25 µM (inactive) |  | 
S=C(N/N=C\c1ccccn1)N(Cc1ccccn1)Cc1ccccn1 | 1.11 µM (active) | 1.32 µM (inactive) | 3.47 µM (inactive) | 1.49 µM (inactive) | 0.34 µM (active) | 0.557 µM (active) | 2.3 µM (inactive) | 7.55 µM (inactive) | 0.111 µM (active) |  | 1.37 µM (inactive) | 0.229 µM (active) | 2.71 µM (inactive) | 7.03 µM (inactive) | 1.1 µM (active) | 1.87 µM (inactive) | 0.0822 µM (active) | 0.431 µM (active) | 5.43 µM (inactive) | 0.367 µM (active)
COc1cccc(NC(=O)C(C#N)=C(SC)SC)c1 | > 100 µM (inactive) | 46 µM (inactive) | 57 µM (inactive) | > 100 µM (inactive) | > 100 µM (inactive) | > 100 µM (inactive) | > 100 µM (inactive) | > 100 µM (inactive) | 72.9 µM (inactive) | > 100 µM (inactive) | > 100 µM (inactive) | 95.1 µM (inactive) | > 100 µM (inactive) | > 100 µM (inactive) | > 100 µM (inactive) |  | > 100 µM (inactive) | > 100 µM (inactive) | > 100 µM (inactive) | > 100 µM (inactive)
COc1ccc(-c2cc(=O)c3c(O)cc(O)cc3o2)cc1OC | 44.7 µM (inactive) | 2.3 µM (inactive) | 26.6 µM (inactive) | 33 µM (inactive) | 59.6 µM (inactive) | 28.2 µM (inactive) | > 100 µM (inactive) | > 100 µM (inactive) | > 100 µM (inactive) | > 100 µM (inactive) | > 100 µM (inactive) |  | 24 µM (inactive) | > 100 µM (inactive) | > 100 µM (inactive) | > 100 µM (inactive) | 81.8 µM (inactive) | 28.4 µM (inactive) | 4.69 µM (inactive) | 
CCCCCCOC(=O)/C=C/[C@]1(CO)C/C(=C/CC(C(C)C)C(C)C)C(=O)O1 | 1.74 µM (inactive) | 12.1 µM (inactive) | 10.5 µM (inactive) | 16 µM (inactive) |  | 13.2 µM (inactive) | 2.99 µM (inactive) | 1.39 µM (inactive) | 16 µM (inactive) |  | 12.2 µM (inactive) | 10.9 µM (inactive) | 8.41 µM (inactive) | 2.2 µM (inactive) | 12.1 µM (inactive) | 12.2 µM (inactive) | 7.33 µM (inactive) | 10.9 µM (inactive) | 14.2 µM (inactive) | 16.7 µM (inactive)
Sc1nnc(CNc2ccc(-c3nnc(S)n3-c3ccc(Cl)cc3)cc2)n1-c1ccc(Cl)cc1 | 31.4 µM (inactive) | 23.9 µM (inactive) | 26.5 µM (inactive) | 18.5 µM (inactive) | 24.2 µM (inactive) | 15.2 µM (inactive) | 31.6 µM (inactive) | 26.1 µM (inactive) | 40.3 µM (inactive) | 22.4 µM (inactive) | 6.58 µM (inactive) | 19.4 µM (inactive) | 18.5 µM (inactive) | 31.2 µM (inactive) | 25.2 µM (inactive) | 39 µM (inactive) | 25.3 µM (inactive) | 30.3 µM (inactive) | 39.7 µM (inactive) | 
CCOP(=O)(CCC(O)CNc1nc(N)nc(Cl)c1/N=N/c1ccc(Cl)cc1)OCC (configuration not stated) | 11.1 µM (inactive) | 0.377 µM (active) |  | 19.1 µM (inactive) | 17.2 µM (inactive) | 14.7 µM (inactive) | 14.5 µM (inactive) | 12.4 µM (inactive) | 11.5 µM (inactive) | 12.8 µM (inactive) | 5.2 µM (inactive) | 2.96 µM (inactive) | 12.5 µM (inactive) | 13.3 µM (inactive) |  | 17 µM (inactive) | 15.3 µM (inactive) | 15.3 µM (inactive) | 4.5 µM (inactive) | 17.7 µM (inactive)
[O-][S+]1c2ccccc2SCSc2ccccc21 | > 100 µM (inactive) | 14.8 µM (inactive) | > 100 µM (inactive) | > 100 µM (inactive) | > 100 µM (inactive) | > 100 µM (inactive) | > 100 µM (inactive) | > 100 µM (inactive) | > 100 µM (inactive) | > 100 µM (inactive) | > 100 µM (inactive) | > 100 µM (inactive) | > 100 µM (inactive) | > 100 µM (inactive) | > 100 µM (inactive) | > 100 µM (inactive) | > 100 µM (inactive) | > 100 µM (inactive) |  | > 100 µM (inactive)
COc1ccc(-n2c(CCCC(=O)O)nc3c2C(=O)c2ccccc2C3=O)cc1 | 93.1 µM (inactive) | 20.2 µM (inactive) | > 100 µM (inactive) | 64.1 µM (inactive) | 54.6 µM (inactive) | 36.6 µM (inactive) | > 100 µM (inactive) | 31.4 µM (inactive) | 32.6 µM (inactive) | 37.1 µM (inactive) | 15.2 µM (inactive) | > 100 µM (inactive) |  | 84.7 µM (inactive) | 15.5 µM (inactive) | 44.1 µM (inactive) |  | 46.7 µM (inactive) | 89.5 µM (inactive) | 51.3 µM (inactive)
Oc1ccc(O)c(Cc2ccccc2)c1 | 20.7 µM (inactive) | 16.3 µM (inactive) | 53.1 µM (inactive) | 19.1 µM (inactive) | 18.4 µM (inactive) |  | 37.2 µM (inactive) | 18 µM (inactive) | 15 µM (inactive) | 17.4 µM (inactive) | 26.4 µM (inactive) |  | 27.9 µM (inactive) | 93.1 µM (inactive) | 23.5 µM (inactive) | 26.4 µM (inactive) | 37 µM (inactive) | 12.5 µM (inactive) |  | 15.4 µM (inactive)
COc1ccc(/C=C/c2ccnc3ccccc23)cc1 | 23.6 µM (inactive) | 4.66 µM (inactive) | 19.3 µM (inactive) | 16.5 µM (inactive) | 18.6 µM (inactive) | 15.7 µM (inactive) | 15.4 µM (inactive) | 16.6 µM (inactive) | 15.6 µM (inactive) | 16.8 µM (inactive) | 16.7 µM (inactive) | 17.7 µM (inactive) | 20.5 µM (inactive) | 20.1 µM (inactive) | 17.3 µM (inactive) | 12.7 µM (inactive) | 10.4 µM (inactive) | 15.2 µM (inactive) |  | 
COC1=CC(=O)C2=C(C[C@@]3(C)C(=C2)C(CO)=CC[C@H]3O)C1=O | 25.9 µM (inactive) | 11 µM (inactive) | 68.1 µM (inactive) | 31.4 µM (inactive) | 17.8 µM (inactive) | 18.7 µM (inactive) | 33.7 µM (inactive) | 19 µM (inactive) | 16 µM (inactive) | 27.5 µM (inactive) | 34.2 µM (inactive) | 73.3 µM (inactive) | 25.2 µM (inactive) | 36.5 µM (inactive) | 21.8 µM (inactive) | 20.4 µM (inactive) | 46.1 µM (inactive) | 18.7 µM (inactive) |  | 18.2 µM (inactive)
C/C(=N\NC(N)=S)c1nc2cccnc2[nH]1 | 45.7 µM (inactive) | 98.2 µM (inactive) | > 76.7 µM (inactive) | 67.5 µM (inactive) | > 100 µM (inactive) | 54 µM (inactive) | 57.5 µM (inactive) | > 100 µM (inactive) | 26.8 µM (inactive) | 38.8 µM (inactive) | > 92.9 µM (inactive) | 33.5 µM (inactive) | 67.3 µM (inactive) | > 66.1 µM (inactive) | 63.1 µM (inactive) |  | 41.3 µM (inactive) | 57.7 µM (inactive) | > 100 µM (inactive) | > 67 µM (inactive)
O=C(CCc1ccc(O)c(O)c1)NCCc1cc(OCc2ccccc2)cc(OCc2ccccc2)c1 | 5.55 µM (inactive) | 8.87 µM (inactive) | 3.71 µM (inactive) | 8.99 µM (inactive) | 10.4 µM (inactive) | 11.8 µM (inactive) | 16.7 µM (inactive) | 11 µM (inactive) | 12 µM (inactive) | 2.81 µM (inactive) |  | 4.45 µM (inactive) | 13.1 µM (inactive) | 9.86 µM (inactive) | 12.1 µM (inactive) | 14.1 µM (inactive) | 10.1 µM (inactive) | 8.45 µM (inactive) | 4.98 µM (inactive) | 13.6 µM (inactive)
CC(C)(C)[Si](C)(C)OC[C@H](/C=C\CCCC(=O)O)NC1(c2ccccc2)c2ccccc2-c2ccccc21 | 15.1 µM (inactive) | 11.1 µM (inactive) | 32.9 µM (inactive) | 15.5 µM (inactive) | 11.6 µM (inactive) | 7.29 µM (inactive) | 10.7 µM (inactive) | 20.6 µM (inactive) | 10.4 µM (inactive) | 13.6 µM (inactive) |  | 11.2 µM (inactive) | 15.2 µM (inactive) | 14.5 µM (inactive) | 16.8 µM (inactive) | 14.7 µM (inactive) | 13.2 µM (inactive) | 13.9 µM (inactive) | 29.4 µM (inactive) | 16.6 µM (inactive)
